Measurements from patent US11014904B2, “1,2,4-triazine-3-amine derivative, preparation method therefor, and use thereof in medicine” (Jiangsu Hengrui Medicine Co., Ltd., priority 2017, dated 2021).

How the values were obtained:
[1] = target: T1, adenosine A2a receptor (A2aR) (Homo sapiens, UniProt P29274); experiment: Inhibition of the adenosine A2a receptor cAMP signaling pathway in CHO-K1/A2aR cells (HTRF); format: cell-based; conditions: for IC50: CHO-K1/A2aR cells, cAMP, Table 1
T1 construct: expressed in transfected cells; host or cells: CHO-K1
T1 sequence (P29274 whole entry): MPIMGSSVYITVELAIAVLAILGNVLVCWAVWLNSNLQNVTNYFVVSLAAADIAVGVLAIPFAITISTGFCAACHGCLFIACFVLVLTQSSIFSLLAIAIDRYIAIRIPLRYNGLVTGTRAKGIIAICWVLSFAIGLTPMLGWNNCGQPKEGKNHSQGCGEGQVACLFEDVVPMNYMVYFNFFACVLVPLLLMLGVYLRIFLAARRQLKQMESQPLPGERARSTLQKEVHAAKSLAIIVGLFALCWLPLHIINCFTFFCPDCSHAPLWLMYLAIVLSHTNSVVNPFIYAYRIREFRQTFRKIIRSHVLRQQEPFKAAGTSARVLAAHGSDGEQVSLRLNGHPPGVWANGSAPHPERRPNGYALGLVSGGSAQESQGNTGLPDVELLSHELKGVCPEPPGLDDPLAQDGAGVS
From the text: (§1) Determination of the inhibition activity of the compounds of the present invention on the adenosine A2a receptor (A2aR) cAMP signaling pathway, the adenosine A2b receptor (A2bR) cAMP signaling pathway, the adenosine A1 receptor (A1R) cAMP signaling pathway and the adenosine A3 receptor (A3R) cAMP signaling pathway.
(§2) The inhibition activity of the compounds of the present invention on the adenosine A2a receptor (A2aR) cAMP signaling pathway, the adenosine A2b receptor cAMP signaling pathway, the adenosine A1 receptor cAMP signaling pathway and the adenosine A3 receptor cAMP signaling pathway was determined by the following method. The experimental method is briefly described as follows:
2.1 Adenosine A2a receptor
CHO-K1/A2aR cells were cultured in DMEM/F12 medium containing 10% fetal bovine serum and 800 μg/ml bleomycin. The cells were digested with the cell separation buffer during the experiment. The cells were resuspended in the balanced salt buffer containing 20 mM HEPES and 0.1% bovine serum albumin and counted, and the cell density was adjusted to 10^6 cells/ml. In the 384-well plate, each well was added with 5 μl of cell suspension, and 2.5 μl of test compound (4× concentration) formulated with the balanced salt buffer containing 20 mM HEPES, 0.1% bovine serum albumin, 54 μM rolipram and 2.7 U/ml adenosine deaminase, and the plate was incubated at room temperature for 30 minutes. Each well was then added with 2.5 μl of […] (4× concentration) formulated with the balanced salt buffer containing 20 mM HEPES, 0.1% bovine serum albumin, 54 μM rolipram and 2.7 U/ml adenosine deaminase, and the plate was incubated at room temperature for 30 minutes. The final concentrations of the compounds were: 10000, 2000, 400, 80, 16, 3.2, 0.64, 0.128, 0.0256, 0.00512, and 0.001024 nM. The final concentration of […] was 20 nM. Intracellular cAMP concentration was detected with the cAMP dynamic 2 kit. cAMP-d2 and Anti-cAMP-Eu-Cryptate were diluted respectively with the cAMP lysis buffer at a ratio of 1:4. Each well was added with 5 μl of diluted cAMP-d2, followed by addition of 5 μl of diluted Anti-cAMP-Eu-Cryptate, and the plate was incubated at room temperature in the dark for 1 hour. The HTRF signal values were read by the PHERAstar multi-function microplate reader.

[2] = target: T2, adenosine A3 receptor (A3R) (Homo sapiens, UniProt P0DMS8); experiment: Inhibition of the adenosine A3 receptor cAMP signaling pathway in CHO-K1/A3R cells (HTRF); format: cell-based; conditions: for IC50: CHO-K1/A3R cells, cAMP, forskolin 10 μM, 2Cl-IB-MECA 5 nM; for IC50 ratio (A3R/A2aR): selectivity A3R over A2aR
T2 construct: expressed in transfected cells; host or cells: CHO-K1
T2 sequence (P0DMS8 1-318): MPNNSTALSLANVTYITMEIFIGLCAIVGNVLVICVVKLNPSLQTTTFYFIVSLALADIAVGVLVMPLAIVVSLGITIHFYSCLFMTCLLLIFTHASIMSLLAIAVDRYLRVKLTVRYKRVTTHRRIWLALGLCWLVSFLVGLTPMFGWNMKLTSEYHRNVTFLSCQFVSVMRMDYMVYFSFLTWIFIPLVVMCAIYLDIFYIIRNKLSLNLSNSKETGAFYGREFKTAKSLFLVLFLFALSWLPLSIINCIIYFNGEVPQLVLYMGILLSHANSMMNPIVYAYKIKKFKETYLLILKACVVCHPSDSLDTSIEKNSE
From the text: as §1, §2
2.4 Adenosine A3 Receptor
CHO-K1/A3R cells were cultured in DMEM/F12 medium containing 10% fetal bovine serum and 10 μg/ml puromycin. The cells were digested with the cell separation buffer during the experiment. The cells were resuspended in the balanced salt buffer containing 20 mM HEPES and 0.1% bovine serum albumin and counted, and the cell density was adjusted to 5×10^5 cells/ml. In the 384-well plate, each well was added with 12.5 μl of cell suspension, and 6.25 μl of test compound (4× concentration) formulated with the balanced salt buffer containing 20 mM HEPES, 0.1% bovine serum albumin, 54 μM rolipram and 2.7 U/ml adenosine deaminase, and the plate was incubated at room temperature for 30 minutes. Each well was then added with 6.25 μl of forskolin and 2Cl-IB-MECA (4× concentration) formulated with the balanced salt buffer containing 20 mM HEPES, 0.1% bovine serum albumin, 54 μM rolipram and 2.7 U/ml adenosine deaminase, and the plate was incubated at room temperature for 30 minutes. The final concentrations of the compounds were: 100000, 10000, 1000, 100, 10, 1, 0.1 and 0 nM. The final concentrations of forskolin was 10 μM. The final concentration of 2Cl-IB-MECA was 5 nM. Intracellular cAMP concentration was detected with the cAMP dynamic 2 kit. cAMP-d2 and Anti-cAMP-Eu-Cryptate were diluted respectively with the cAMP lysis buffer at a ratio of 1:4. Each well was added with 12.5 μl of diluted cAMP-d2, followed by addition of 12.5 μl of diluted Anti-cAMP-Eu-Cryptate, and the plate was incubated at room temperature in the dark for 1 hour. The HTRF signal values were read by the PHERAstar multi-function microplate reader.

IC50 ([1]; NECA 20 nM) [nM]	IC50 [2] [nM]	IC50 ratio (A3R/A2aR) [2]	difference in inhibition activity on the adenosine A2a receptor versus Comparative Example 1 ([1]; compared with Comparative Example 1) [times]	IC50 ([1]; 20 nM) [nM]	SMILES
0.6	> 10000	>10^4			Nc1nnc(-c2cc(F)c3ncccc3c2)c(-c2ccccc2)n1 [Example 2, 6-(8-Fluoroquinolin-6-yl)-5-phenyl-1,2,4-triazin-3-amine]
0.7	> 10000	>10^4	225		Nc1nnc(-c2ccc3ncccc3c2)c(-c2ccccc2)n1 [Example 3, 5-Phenyl-6-(quinolin-6-yl)-1,2,4-triazin-3-amine]
0.1	> 10000	>10^4			Cc1ncnc2ccc(-c3nnc(N)nc3-c3ccccc3)cc12 [Example 15, 6-(4-Methylquinazolin-6-yl)-5-phenyl-1,2,4-triazin-3-amine]
0.2	> 10000	>10^4			Cc1ccnc2c(F)cc(-c3nnc(N)nc3-c3ccccc3)cc12 [Example 16, 6-(8-Fluoro-4-methylquinolin-6-yl)-5-phenyl-1,2,4-triazin-3-amine]
0.5	> 10000	>10^4			Cc1ccnc2ccc(-c3nnc(N)nc3-c3ccccc3F)cc12 [Example 17, 5-(2-Fluorophenyl)-6-(4-methylquinolin-6-yl)-1,2,4-triazin-3-amine]
0.2	> 10000	>10^4			Cc1ccnc2ccc(-c3nnc(N)nc3-c3ccc(F)cc3)cc12 [Example 18, 5-(4-Fluorophenyl)-6-(4-methylquinolin-6-yl)-1,2,4-triazin-3-amine]
	> 10000	>10^4		0.4	Cc1ncnc2ccc(-c3nnc(N)nc3-c3ccc(F)cc3)cc12 [Example 19, 5-(4-Fluorophenyl)-6-(4-methylquinazolin-6-yl)-1,2,4-triazin-3-amine]
1.5	> 10000	>10^3			Cc1ccnc2c(F)cc(-c3nnc(N)nc3-c3ccc(F)cc3)cc12 [Example 20, 6-(8-Fluoro-4-methylquinolin-6-yl)-5-(4-fluorophenyl)-1,2,4-triazin-3-amine]
0.3	> 10000	>10^4			[2H]C([2H])([2H])c1ccnc2ccc(-c3nnc(N)nc3-c3ccc(F)cc3)cc12 [Example 22, 5-(4-Fluorophenyl)-6-[4-(trideuteromethyl)-6-quinolinyl]-1,2,4-triazin-3-amine]
3.8	> 10000	>10^3			Cc1ccnc2c(F)cc(-c3nnc(N)nc3-c3ccccc3F)cc12 [Example 31, 6-(8-Fluoro-4-methylquinolin-6-yl)-5-(2-fluorophenyl)-1,2,4-triazin-3-amine]
0.8	> 10000	>10^4			CCc1ccnc2ccc(-c3nnc(N)nc3-c3ccc(F)cc3)cc12 [Example 44, 6-(4-Ethylquinolin-6-yl)-5-(4-fluorophenyl)-1,2,4-triazin-3-amine]
1.2	> 10000	>10^3			Cc1ncnc2c(F)cc(-c3nnc(N)nc3-c3ccccc3)cc12 [Example 45, 6-(8-Fluoro-4-methylquinazolin-6-yl)-5-phenyl-1,2,4-triazin-3-amine]
	> 10000	>10^4		0.9	[2H]C([2H])([2H])c1ncnc2ccc(-c3nnc(N)nc3-c3ccc(F)cc3)cc12 [Example 52, 5-(4-Fluorophenyl)-6-(4-(methyl-d3)quinazolin-6-yl)-1,2,4-triazin-3-amine]
